Assay results taken from PubChem BioAssay AID1259407 (Chemical Carcinogenesis Research Information System (CCRIS), 2018).
Calls of active or inactive are those of the source. No rule for the calls is given here.

Tested on: CCRIS mutagenicity, Ames/micronucleus/aberration tests
Assay: CCRIS mutagenicity studies
[1] = Test System: AMES SALMONELLA TYPHIMURIUM, Strain/Indicator: TA100, Metabolic Activation: NONE, Method: STANDARD PLATE

Measured: mutagenic call

CC(=O)CC(=O)Nc1ccc(C)cc1
inactive: Test System: AMES SALMONELLA TYPHIMURIUM, Strain/Indicator: TA98, Metabolic Activation: NONE, Method: PREINCUBATION inactive; negative | Test System: AMES SALMONELLA TYPHIMURIUM, Strain/Indicator: TA98, Metabolic Activation: RAT, LIVER, S-9, PHENOBARBITAL AND BETA-NAPHTHOFLAVONE, Method: PREINCUBATION inactive; negative | Test System: AMES SALMONELLA TYPHIMURIUM, Strain/Indicator: TA100, Metabolic Activation: NONE, Method: PREINCUBATION inactive; negative | Test System: AMES SALMONELLA TYPHIMURIUM, Strain/Indicator: TA100, Metabolic Activation: RAT, LIVER, S-9, PHENOBARBITAL AND BETA-NAPHTHOFLAVONE, Method: PREINCUBATION inactive; negative | Test System: AMES SALMONELLA TYPHIMURIUM, Strain/Indicator: TA102, Metabolic Activation: NONE, Method: PREINCUBATION inactive; negative | Test System: AMES SALMONELLA TYPHIMURIUM, Strain/Indicator: TA102, Metabolic Activation: NONE, Method: STANDARD PLATE inactive; negative | Test System: AMES SALMONELLA TYPHIMURIUM, Strain/Indicator: TA102, Metabolic Activation: RAT, LIVER, S-9, PHENOBARBITAL AND BETA-NAPHTHOFLAVONE, Method: PREINCUBATION inactive; negative | Test System: AMES SALMONELLA TYPHIMURIUM, Strain/Indicator: TA104, Metabolic Activation: NONE, Method: PREINCUBATION inactive; negative | Test System: AMES SALMONELLA TYPHIMURIUM, Strain/Indicator: TA104, Metabolic Activation: RAT, LIVER, S-9, PHENOBARBITAL AND BETA-NAPHTHOFLAVONE, Method: PREINCUBATION inactive; negative | Test System: AMES SALMONELLA TYPHIMURIUM, Strain/Indicator: TA1535, Metabolic Activation: NONE, Method: PREINCUBATION inactive; negative | Test System: AMES SALMONELLA TYPHIMURIUM, Strain/Indicator: TA1535, Metabolic Activation: RAT, LIVER, S-9, PHENOBARBITAL AND BETA-NAPHTHOFLAVONE, Method: PREINCUBATION inactive; negative | Test System: AMES SALMONELLA TYPHIMURIUM, Strain/Indicator: TA1537, Metabolic Activation: NONE, Method: PREINCUBATION inactive; negative | Test System: AMES SALMONELLA TYPHIMURIUM, Strain/Indicator: TA1537, Metabolic Activation: RAT, LIVER, S-9, PHENOBARBITAL AND BETA-NAPHTHOFLAVONE, Method: PREINCUBATION inactive; negative | Test System: AMES SALMONELLA TYPHIMURIUM, Strain/Indicator: TA2638, Metabolic Activation: NONE, Method: STANDARD PLATE inactive; negative | Test System: E. COLI, Strain/Indicator: WP2 (PKM101), Metabolic Activation: NONE, Method: STANDARD PLATE inactive; negative | Test System: E. COLI, Strain/Indicator: WP2 UVRA (PKM101), Metabolic Activation: NONE, Method: STANDARD PLATE inactive; negative | Test System: E. COLI, Strain/Indicator: WP2UVRA, Metabolic Activation: NONE, Method: PREINCUBATION inactive; negative | Test System: E. COLI, Strain/Indicator: WP2UVRA, Metabolic Activation: RAT, LIVER, S-9, PHENOBARBITAL AND BETA-NAPHTHOFLAVONE, Method: PREINCUBATION inactive; negative
active: Test System: E. COLI, Strain/Indicator: WP2UVRA/PKM101, Metabolic Activation: NONE, Method: PREINCUBATION active; positive

CC[C@H](C)OS(C)(=O)=O
active: [1] active; positive | Test System: AMES SALMONELLA TYPHIMURIUM, Strain/Indicator: TA1535, Metabolic Activation: NONE, Method: STANDARD PLATE active; positive | Test System: CHINESE HAMSTER V-79, Strain/Indicator: V-79/6-THIOGUANINE, Metabolic Activation: NONE active; positive

Oc1ccc2cccnc2c1
inactive: [1] inactive; negative | Test System: AMES SALMONELLA TYPHIMURIUM, Strain/Indicator: TA100, Metabolic Activation: RAT, LIVER, S-9, AROCLOR 1254 (10% OR 20%), Method: STANDARD PLATE inactive; negative

C(=NC1CCCCC1)=NC1CCCCC1
inactive: End Point: In vivo micronucleus, Test System: Bone marrow polychromatic erythrocytes, Species: Rat, Strain/Sex: F344/N/Male, Route: Intraperitoneal inactive; negative | Test System: Ames Salmonella typhimurium, Strain/Indicator: TA97, Metabolic Activation: Hamster, liver S-9, Aroclor 1254, 10 and 30%, Method: Preincubation inactive; negative | Test System: Ames Salmonella typhimurium, Strain/Indicator: TA97, Metabolic Activation: None, Method: Preincubation inactive; negative | Test System: Ames Salmonella typhimurium, Strain/Indicator: TA97, Metabolic Activation: Rat, liver S-9, Aroclor 1254, 10 and 30%, Method: Preincubation inactive; negative | Test System: Ames Salmonella typhimurium, Strain/Indicator: TA98, Metabolic Activation: Hamster, liver S-9, Aroclor 1254, 10 and 30%, Method: Preincubation inactive; negative | Test System: Ames Salmonella typhimurium, Strain/Indicator: TA98, Metabolic Activation: None, Method: Preincubation inactive; negative | Test System: Ames Salmonella typhimurium, Strain/Indicator: TA98, Metabolic Activation: Rat, liver S-9, Aroclor 1254, 10 and 30%, Method: Preincubation inactive; negative | Test System: Ames Salmonella typhimurium, Strain/Indicator: TA100, Metabolic Activation: Hamster, liver S-9, Aroclor 1254, 10 and 30%, Method: Preincubation inactive; negative | Test System: Ames Salmonella typhimurium, Strain/Indicator: TA100, Metabolic Activation: None, Method: Preincubation inactive; negative | Test System: Ames Salmonella typhimurium, Strain/Indicator: TA100, Metabolic Activation: Rat, liver S-9, Aroclor 1254, 10 and 30%, Method: Preincubation inactive; negative | Test System: Ames Salmonella typhimurium, Strain/Indicator: TA1535, Metabolic Activation: Hamster, liver, S-9, Aroclor 1254, 10 and 30%, Method: Preincubation inactive; negative | Test System: Ames Salmonella typhimurium, Strain/Indicator: TA1535, Metabolic Activation: None, Method: Preincubation inactive; negative | Test System: Ames Salmonella typhimurium, Strain/Indicator: TA1535, Metabolic Activation: Rat, liver, S-9, Aroclor 1254, 10 and 30%, Method: Preincubation inactive; negative
active: End Point: In vivo micronucleus, Test System: Peripheral blood normochromatic erythrocytes, Species: Mouse, Strain/Sex: B6C3F1/ Female, Route: Dermal active; positive (significant increase in the frequency only at 3 mg/kg (p=0.003)) | End Point: In vivo micronucleus, Test System: Peripheral blood normochromatic erythrocytes, Species: Mouse, Strain/Sex: B6C3F1/ Male, Route: Dermal active; positive (results of trend test significant (p=0.003 but increase in frequency o

Oc1cc(Cl)c(O)cc1Cl
inactive: Test System: AMES SALMONELLA TYPHIMURIUM, Strain/Indicator: TA98, Metabolic Activation: NONE inactive; negative | Test System: AMES SALMONELLA TYPHIMURIUM, Strain/Indicator: TA98, Metabolic Activation: RAT, LIVER, S-9, AROCLOR 1254 inactive; negative | Test System: AMES SALMONELLA TYPHIMURIUM, Strain/Indicator: TA100, Metabolic Activation: NONE inactive; negative | Test System: AMES SALMONELLA TYPHIMURIUM, Strain/Indicator: TA100, Metabolic Activation: RAT, LIVER, S-9, AROCLOR 1254 inactive; negative | Test System: AMES SALMONELLA TYPHIMURIUM, Strain/Indicator: TA102, Metabolic Activation: NONE inactive; negative | Test System: AMES SALMONELLA TYPHIMURIUM, Strain/Indicator: TA102, Metabolic Activation: RAT, LIVER, S-9, AROCLOR 1254 inactive; negative | Test System: AMES SALMONELLA TYPHIMURIUM, Strain/Indicator: TA104, Metabolic Activation: NONE inactive; negative | Test System: AMES SALMONELLA TYPHIMURIUM, Strain/Indicator: TA104, Metabolic Activation: RAT, LIVER, S-9, AROCLOR 1254 inactive; negative
